Results on 21 molecules are retold here after patent US20250268903A1, “RXFP1 AGONISTS” (BRISTOL-MYERS SQUIBB COMPANY, priority 2021, published 2025).

The target in this assay is T1, human RXFP1 (Homo sapiens, UniProt Q9HBX9).
T1 construct: expressed in transfected cells
T1 sequence (Q9HBX9 1-757): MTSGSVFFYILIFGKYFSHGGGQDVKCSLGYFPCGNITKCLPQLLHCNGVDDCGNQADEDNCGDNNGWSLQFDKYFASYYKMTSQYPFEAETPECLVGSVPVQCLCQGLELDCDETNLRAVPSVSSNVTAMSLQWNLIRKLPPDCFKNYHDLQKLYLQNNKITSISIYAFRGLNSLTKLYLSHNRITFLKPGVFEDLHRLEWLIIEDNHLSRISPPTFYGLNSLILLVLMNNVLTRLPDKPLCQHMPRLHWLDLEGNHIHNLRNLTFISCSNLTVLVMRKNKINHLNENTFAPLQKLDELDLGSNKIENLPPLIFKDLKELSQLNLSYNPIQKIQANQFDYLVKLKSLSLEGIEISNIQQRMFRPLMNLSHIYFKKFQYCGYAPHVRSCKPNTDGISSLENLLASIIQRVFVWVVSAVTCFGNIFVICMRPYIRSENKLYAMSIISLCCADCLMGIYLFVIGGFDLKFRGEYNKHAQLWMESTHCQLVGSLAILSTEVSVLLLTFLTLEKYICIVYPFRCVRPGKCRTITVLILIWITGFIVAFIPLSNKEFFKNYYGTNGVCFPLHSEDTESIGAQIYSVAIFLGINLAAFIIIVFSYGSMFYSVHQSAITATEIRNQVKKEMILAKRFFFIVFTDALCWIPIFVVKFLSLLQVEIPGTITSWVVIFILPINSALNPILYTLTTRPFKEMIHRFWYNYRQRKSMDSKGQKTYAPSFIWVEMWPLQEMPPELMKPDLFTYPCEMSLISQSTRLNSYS
The assay can be described thus: hRXFP1 HEK293 cAMP assay (HTRF). The class given is cell-based. The following applies: HEK293 cells stably expressing human RXFP1, 30 min at room temperature. Put shortly:
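hRXFP1-HEK293 stable line; HBSS + Ca/Mg, 20 mM HEPES, 0.05% BSA, 0.5 mM IBMX; cpd 0.010 nM–50 μM, 2% DMSO; 30 min RT; lysis, HTRF cAMP detection; 4-PL fit.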
Molecule `COc1ccc(CCCNC(=O)CO)cc1C(=O)N[C@@H]1C2CCC(/C2=C/C(F)(F)F)[C@@H]1C(=O)Nc1ccc(F)c(C(F)(F)F)c1` (stereo partly drawn) [Example 116, (2S,3R,7Z)-N-[4-fluoro-3-(trifluoromethyl)phe-nyl]-3-{5-[3-(2-hydroxyacetamido)pro-pyl]-2-methoxybenzamido}-7-(2,2,2-trifluoroethylidene)bi-cyclo[2.2.1]heptane-2-carboxamide] had an EC50 of 940 nM. Molecule `COc1ccc(CCC(=O)O)cc1C(=O)N[C@@H]1C2CCC(/C2=C/C(F)(F)F)[C@@H]1C(=O)Nc1ccc(F)c(C(F)(F)F)c1` (stereo partly drawn) [Example 9, 3-(3-{[(2R,3S,7Z)-3-{[4-fluoro-3-(trifluoromethyl)phenyl]carbamoyl}-7-(2,2,2-trifluoroethylidene)bicyclo[2.2.1]heptan-2-yl]carbamoyl}-4-methoxyphenyl) propanoic acid] came in with an EC50 of 255 nM. The figure for `COc1ccc(CCC(C)(C)O)cc1C(=O)NC1C2CCC(/C2=C/C(C)C)[C@@H]1C(=O)Nc1ccc(F)c(C(F)(F)F)c1` (stereo partly drawn) [Example 158, (7Z)-N-[4-fluoro-3-(trifluoromethyl)phe-nyl]-3-[5-(3-hydroxy-3-methylbutyl)-2-methoxybenzamido]-7-(2-methylpropylidene)bi-cyclo[2.2.1]heptane-2-carboxamide] is 9 nM; for `COc1ccc(CN2C(=O)NC3(CCOC3)C2=O)cc1C(=O)N[C@H]1[C@@H](C(=O)Nc2ccc(F)c(C(F)(F)F)c2)[C@H]2CC[C@@H]1/C2=C\C1CC1` (stereo partly drawn) [Example 295, (1R,2S,3R,4R,7Z)-7-(cyclopropyl-methylidene)-3-[5-({2,4-dioxo-7-oxa-1,3-diazaspiro[4.4]nonan-3-yl}methyl)-2-methoxybenzamido]-N-[4-fluoro-3-(trifluoromethyl)phenyl]bicyclo [2.2.1]heptane-2-carboxamide] it is 70.4 nM; for `COc1ccc(C2CCCC(C(=O)O)C2)cc1C(=O)NC1C2CCC(/C2=C/C(F)(F)F)[C@@H]1C(=O)Nc1ccc(F)c(C(F)(F)F)c1` (stereo partly drawn) [Example 144, 3-(3-{[(2R,3S,7Z)-3-{[4-fluoro-3-(trifluoromethyl)phe-nyl]carbamoyl}-7-(2,2,2-trifluoroethylidene)bi-cyclo[2.2.1]heptan-2-yl]carbamoyl}-4-methoxyphenyl)cyclo-hexane-1-carboxylic acid] it is 134 nM. With `COc1ccc(C[C@H]2C[C@H](O)C2)cc1C(=O)N[C@H]1[C@@H](C(=O)Nc2ccc(F)c(C(F)(F)F)c2)[C@H]2CC[C@@H]1/C2=C\C(F)(F)F` [Example 279, (1R,2S,3R,4R,7Z)-N-[4-fluoro-3-(trifluoromethyl)phenyl]-3-(2-methoxy-5-{[(1r,3s)-3-hydroxycyclobutyl]methyl}benzamido)-7-(2,2,2-trifluoroethylidene) bicyclo[2.2.1]heptane-2-carboxamide] the figure was 18.3 nM.

For the molecule `COc1ccc(C2CC3CC(CO)CC32)cc1C(=O)N[C@H]1[C@@H](C(=O)Nc2ccc(F)c(C(F)(F)F)c2)[C@H]2CC[C@@H]1/C2=C\C1CC1` (single isomer, unassigned) [Example 352], the EC50 stood at 49.9 nM.

For the molecule `COc1ccc(CCC(=O)NC2CCC2)cc1C(=O)NC1C2CCC(/C2=C/C(F)(F)F)[C@@H]1C(=O)Nc1ccc(F)c(C(F)(F)F)c1` (stereo partly drawn) [Example 139, (2S,3R,7Z)-3-{5-[2-(cyclobutylcarbamoyl)ethyl]-2-methoxybenzamido}-N-[4-fluoro-3-(trifluoromethyl)phe-nyl]-7-(2,2,2-trifluoroethylidene)bi-cyclo[2.2.1]heptane-2-carboxamide], the EC50 amounted to 694 nM.

`COc1ccc(S(N)(=O)=O)cc1C(=O)N[C@@H]1C2CCC(C2=C(C)C)[C@@H]1C(=O)Nc1ccc(F)c(C(F)(F)F)c1` (stereo partly drawn) [Example 207, (2S,3R)-N-[4-fluoro-3-(trifluoromethyl)phenyl]-3-(2-methoxy-5-sulfamoylbenzamido)-7-(propan-2-ylidene)bicyclo[2.2.1] heptane-2-carboxamide]: a half-maximal effect (EC50) was put at 890 nM. In turn, `COc1ccc(S(=O)(=O)N2CCN(C)CC2CO)cc1C(=O)N[C@H]1[C@@H](C(=O)Nc2ccc(F)c(C(F)(F)F)c2)[C@H]2CC[C@@H]1/C2=C\C(F)(F)F` (stereo partly drawn) [Example 218] returned an EC50 of 714 nM. With `COc1ccc(C2CC2C(=O)N2CCC(O)CC2)cc1C(=O)N[C@H]1[C@@H](C(=O)Nc2ccc(F)c(C(F)(F)F)c2)[C@H]2CC[C@@H]1/C2=C\C1CC1` (single isomer, unassigned) [Example 321] the figure was 28.5 nM. Molecule `COc1ccc(CN2C(=O)CNC2=O)cc1C(=O)N[C@@H]1C2CCC(/C2=C/C2CC2)[C@@H]1C(=O)Nc1ccc(F)c(C(F)(F)F)c1` (stereo partly drawn) [Example 22, (2S,3R,7Z)-7-(cyclopropylmethyli-dene)-3-{5-[(2,5-dioxoimidazolidin-1-yl)methyl]-2-methoxybenzamido}-N-[4-fluoro-3-(trifluoromethyl)phe-nyl]bicyclo[2.2.1]hept-ane-2-carboxamide] displayed an EC50 of 417 nM. The molecule `COc1ccc(C(=O)N2CCCC(CO)C2)cc1C(=O)N[C@H]1[C@@H](C(=O)Nc2ccc(F)c(C(F)(F)F)c2)[C@H]2CC[C@@H]1/C2=C\C1CC1` (stereo partly drawn) [Example 234, (1R,2S,3R,4R,7Z)-7-(cyclopropyl-methylidene)-N-[4-fluoro-3-(trifluoromethyl)phenyl]-3-{5-[3-(hydroxymethyl)piperidine-1-carbonyl]-2-methoxybenzamido} bicyclo[2.2.1]heptane-2-carboxamide] returned an EC50 of 64.8 nM.

In the case of `COc1ccc(COCC2COC2)cc1C(=O)N[C@@H]1C2CCC(/C2=C/C2CC2)[C@@H]1C(=O)Nc1ccc(F)c(C(F)(F)F)c1` (stereo partly drawn) [Example 16, (2S,3R,7Z)-7-(cyclopropylmethyli-dene)-N-[4-fluoro-3-(trifluoromethyl)phe-nyl]-3-(2-methoxy-5-{[(oxetan-3-yl)methoxy]methyl}benzamido)bi-cyclo[2.2.1]hept-ane-2-carboxamide], the EC50 worked out at 94 nM. With `COc1ccc(C2CCC(O)CC2)cc1C(=O)NC1C2CCC(/C2=C/C(F)(F)F)[C@@H]1C(=O)Nc1ccc(F)c(C(F)(F)F)c1` (single isomer, unassigned) [Example 52] the figure was 276 nM; with `COc1ccc(S(=O)(=O)N2CCOC[C@@H]2CO)cc1C(=O)N[C@H]1[C@@H](C(=O)Nc2ccc(F)c(C(F)(F)F)c2)[C@H]2CC[C@@H]1/C2=C\C(F)(F)F` [Example 213, (1R,2S,3R,4R,7Z)-N-[4-fluoro-3-(trifluoromethyl)phenyl]-3-(5-{[(3S)-3-(hydroxymethyl)morpholin-4-yl]sulfonyl}-2-methoxybenzamido)-7-(2,2,2-trifluoroethylidene) bicyclo[2.2.1] heptane-2-carboxamide], 331 nM. `COc1ccc([C@H]2C[C@@H](O)C2)cc1C(=O)NC1C2CCC(/C2=C/C(F)(F)F)[C@@H]1C(=O)Nc1ccc(F)c(C(F)(F)F)c1` (stereo partly drawn) [Example 146, (2S,7Z)-N-[4-fluoro-3-(trifluoromethyl)phe-nyl]-3-{2-methoxy-5-[(1s,3s)-3-hydroxycyclobutyl]benz-amido}-7-(2,2,2-trifluoroethylidene)bi-cyclo[2.2.1]heptane-2-carboxamide] gave an EC50 of 234 nM. The figure for `COc1ccc(COC2CCOCC2)cc1C(=O)N[C@H]1[C@@H](C(=O)Nc2ccc(F)c(C(F)(F)F)c2)[C@H]2CC[C@@H]1/C2=C\C1CC1` [Example 288, (1R,2S,3R,4R,7Z)-7-(cyclopropyl-methylidene)-N-[4-fluoro-3-(trifluoromethyl)phenyl]-3-{2-methoxy-5-[(oxan-4-yloxy)methyl]benzamido} bicyclo[2.2.1] heptane-2-carboxamide] is 58.7 nM; for `COc1ccc(C2CCCCC2O)cc1C(=O)N[C@@H]1C2CCC(/C2=C/C(F)(F)F)[C@@H]1C(=O)Nc1ccc(F)c(C(F)(F)F)c1` (single isomer, unassigned) [Example 57] it is 1440 nM; for `COc1ccc(/C=C/C(=O)NCCO)cc1C(=O)N[C@@H]1C2CCC(/C2=C/C(F)(F)F)[C@@H]1C(=O)Nc1ccc(F)c(C(F)(F)F)c1` (stereo partly drawn) [Example 133, (2S,3R,7Z)-N-[4-fluoro-3-(trifluoromethyl)phe-nyl]-3-{5-[(1E)-2-[(2-hydroxyethyl)carba-moyl]eth-1-en-1-yl]-2-methoxybenzamido}-7-(2,2,2-trifluoroethylidene)bi-cyclo[2.2.1]heptane-2-carboxamide] it is 384 nM. With `COc1ccc(C(C)CCO)cc1C(=O)N[C@@H]1C2CCC(/C2=C/C(F)(F)F)[C@@H]1C(=O)Nc1ccc(F)c(C(F)(F)F)c1` (single isomer, unassigned) [Example 60] the figure was 648 nM.
